Measurements as given in patent US20240115554A1, “METHODS FOR TREATING OBSTRUCTIVE HYPERTROPHIC CARDIOMYOPATHY” (Cytokinetics, Incorporated, priority 2022, published 2024).
Values joined by “and” are separate entries in the source; they are usually repeats but may differ in a detail not shown here. Equal entries are not always repeated. “Also recorded” adds a separate entry of the source.

Assays:
Type in all cases: in vivo, human
[1] = test system: patients with symptomatic obstructive HCM (oHCM); experiment: Phase 2 trial: echocardiography (LVOT-G, LVEF, cardiac remodeling); settings: for patients achieving resting gradient <30 mmHg and post-Valsalva gradient <50 mmHg at Week 10 (complete hemodynamic response): n=14
Text: Cohort 3 included patients receiving disopyramide.
Since patient characteristics vary substantially in this disease, individualized dose titration to a pharmacodynamics (PD) response (reduction of the LVOT-G to <30 mmHg with preservation of LVEF >50%) was employed to maximize efficacy and safety.
Patients up-titrated to Dose 2 if either of the following conditions were met on echocardiography: (1) resting LVOT-G ≥30 mmHg and the biplane LVEF ≥50%; or (2) resting LVOT-G <30 mmHg, post-Valsalva LVOT-G ≥50 mmHg, and the biplane LVEF ≥50%. Otherwise, the patient remains on Dose 1. If LVEF is <50% at Week 2, the patient was down-titrated to placebo.
Patients were escalated to the next higher dose if either of the following conditions were met on echocardiography: (1) resting LVOT-G ≥30 mmHg and the biplane LVEF ≥50%; or (2) resting LVOT-G <30 mmHg, post-Valsalva LVOT-G ≥50 mmHg, and the biplane LVEF ≥50%. Otherwise, the patient remained on the same dose. If LVEF was <50% at Week 4, the patient was returned to a prior dose level or to placebo if the patient was on Dose 1.
Echocardiograms obtained every 2 weeks and 2 weeks after the last dose were analyzed for several key structural and physiologic metrics and N-terminal prohormone of brain natriuretic peptide (NT-proBNP).
Overall, treatment duration for each patient in the study was 10 weeks with an echocardiogram conducted 2 weeks after the last dose.
(§1) Secondary results from the clinical study included data from Cohort 3 (n=13). […] Overall, treatment duration for each patient in the study was 10 weeks with an echocardiogram conducted 2 weeks after the last dose. Efficacy endpoints included resting and provoked LVOT gradients, NYHA class, and NT-proBNP.

[2] = test system: patients with symptomatic obstructive HCM (oHCM); experiment: Phase 2 trial: cardiac biomarkers (NT-proBNP, hs-troponin)
Experimental: as §1, with “Echocardiograms obtained every 2 weeks and 2 weeks after the last dose were analyzed for several key structural and physiologic metrics and N-terminal prohormone of brain natriuretic peptide (NT-proBNP). Secondary” for “Secondary”

[3] = test system: patients with symptomatic oHCM; experiment: Open-label extension: NYHA functional class
Experimental: NYHA Functional Classification is recorded. When available, patients will complete patient-reported outcome (PRO) questionnaires: Kansas City Cardiomyopathy Questionnaire (KCCQ), Seattle Angina Questionnaire-7 (SAQ-7), EuroQol 5-Dimension 5-Level Instrument (EQ-5D-5L), Patient's Global Impression of Change (PGI-C) Scale, Clinical Global Impressions (CGI) Scale, SF-36 Physical Functioning Subscale (SF-36 PFS) as specified in Table 23.

[4] = test system: patients with symptomatic oHCM; experiment: Open-label extension: safety and tolerability; settings: for Patients with TEAE Leading to Dose Reduction / Patients with TEAE Leading to Drug Interruption / Patients with at Least One Related TEAE / Patients with at Least One Severe TEAE / Patients with at Least One TEAE / Patients with at Least One TESAE: open-label extension, preliminary safety
Experimental: An open-label extension clinical trial of aficamten in patients with symptomatic oHCM was initiated.
An open-label extension clinical trial of aficamten in patients with symptomatic oHCM was initiated. The treatment duration is anticipated to be multiple years.
Safety and tolerability are evaluated by (i) patient incidence of adverse events, (ii) patient incidence of serious adverse events, (iii) patient incidence of LVEF <50%.

[5] = test system: patients with symptomatic oHCM; experiment: Open-label extension: SRT eligibility per guideline criteria; settings: Week 48 visit; 19 patients (42%) eligible at baseline
Text: There was a substantial reduction in peak resting and Valsalva LVOT-G from baseline to week 48 [ΔResting mean: −32 mmHg (±28); Δ Valsalva mean: −47 mmHg (±28)] (see FIG. 53 and FIG. 54, respectively). […] There was substantial improvement in NYHA class: by week 48, 88% of patients experienced ≥1 NYHA FC improvement while none had NYHA FC worsening (see FIG. 56). At baseline, 19 patients (42%) were eligible for SRT per guideline criteria of symptoms and hemodynamics, despite receiving beta-blocker, (78%) calcium channel blocker (18%), and disopyramide (22%). […] NT pro-BNP decreased from baseline to Week 48 (from a geometric mean [CV %] of 651.0 [160.4] to 111.1 [93.4] pg/mL), representing a […] reduction from baseline (p<0.0001).

[6] = Cohort 3 (with disopyramide), n=13
[7] = baseline to week 10, pooled aficamten
[8] = by week 48, Examples 3a and 3b interim

SMILES: CCc1nc(-c2ccc3c(c2)CC[C@H]3NC(=O)c2cnn(C)c2)no1 [aficamten, (R)—N-(5-(5-ethyl-1,2,4-oxadiazol-3-yl)-2,3-dihydro-1H-inden-1-yl)-1-methyl-1H-pyrazole-4-carboxamide]
- patients achieving resting gradient <30 mmHg and post-Valsalva gradient <50 mmHg at Week 10 (complete hemodynamic response) ([1]; Cohort 1 (5, 10, 15 mg)): 78.6% and 79%
- average resting LVOT-G at 10 weeks ([1]; Cohort 1 (n=14), 53.8 mmHg at baseline): 13.4 mmHg
- average Valsalva LVOT-G at 10 weeks ([1]; Cohort 1 (n=14), 77.4 mmHg at baseline): 38.1 mmHg
- average ejection fraction at 10 weeks ([1]; Cohort 1 (n=14), baseline 72.8% (73±6%)): 67.3% and 67±9%
- patients achieving resting gradient <30 mmHg and post-Valsalva gradient <50 mmHg at Week 10 (complete hemodynamic response) ([1]; Cohort 2 (10, 20, 30 mg)): 92.9% and 93%
- average resting LVOT-G at 10 weeks ([1]; Cohort 2 (n=14), 58.2 mmHg at baseline): 15.1 mmHg
- average Valsalva LVOT-G at 10 weeks ([1]; Cohort 2 (n=14), 82.3 mmHg at baseline): 29.8 mmHg
- average ejection fraction at 10 weeks ([1]; Cohort 2 (n=14), baseline 75.4% (75±6%)): 64.1% and 64±8%
- patients with complete or partial response in LVOT gradients at end of treatment ([1]; Cohort 3 (Ten of 13)): 77%
- patients with temporary complete or partial response during the treatment period ([1]; Cohort 3 (Three patients)): 23%
- mean (SD) reduction of resting LVOT-G at Week 10 [1, 6]: 27 mmHg
- mean reduction of Valsalva LVOT-G at Week 10 [1, 6]: 28 mmHg
- mean LVEF at end of 10-week treatment ([1]; Cohort 3 (with disopyramide), baseline 74±7.5%): 69±7.2%
- dose dependence of reductions in LVOT-G ([1]; Cohorts 1 and 2): dose dependent
- onset of reductions in LVOT-G ([1]; Cohorts 1 and 2): within two weeks of initiating treatment
- mean reduction in EF per mg of aficamten ([1]; Cohorts 1 and 2, dose vs EF over time): −0.6 % per mg
- change in e′ [1, 7]: 0.5 cm/s
- change in lateral E/e′ [1, 7]: −2.0 (±1.1)
- LVMI mean difference, aficamten vs placebo ([1]; week 10): 8.1 g/m^2
- patients with at least some reduction in NT-proBNP levels ([2]; 25 out of the 27 patients on aficamten): 93%
- proportional reduction in NT-proBNP levels compared to placebo ([2]; week 10): 62%
- patients with worsening in NYHA class from baseline ([3]; Example 3a, preliminary): No patients
- patients with NYHA class improvement of one or more classes ([3]; Example 3a, up to 6 months): about 80%
- patients with NYHA FC worsening [3, 8]: none
- patients with ≥1 NYHA FC improvement [3, 8]: 88%
- patients in NYHA class II ([3]; week 12 (baseline 47%), Example 3a): 52%
- patients in NYHA class III ([3]; week 12 (baseline 53%), Example 3a): 7%
- patients in NYHA class I ([3]; week 12, Example 3a): 41%
- patients in NYHA class I ([3]; week 24, Example 3a): 56%
- patients in NYHA class II ([3]; week 24, Example 3a): 39%
- patients in NYHA class III ([3]; week 24, Example 3a): 6%
- safety events deemed related to aficamten therapy by investigators ([4]; BTR/W analysis): no safety events deemed related to aficamten therapy
- LVEF during recurrent alcohol induced atrial fibrillation ([4]; one patient on 15 mg): 47%
- events of LVEF <50% attributed to aficamten ([4]; open label extension): no events of LVEF <50% attributed to aficamten; also recorded: no patients experienced aficamten related reduction in LVEF <50%; also recorded: no instances of systolic dysfunction (LVEF <50%) attributed to aficamten
- tolerability ([4]; open label extension, Example 3a): well tolerated
- Patients with TEAE Leading to Dose Reduction ([4]; N = 38): (5%)
- Patients with TEAE Leading to Drug Interruption ([4]; N = 38): (3%)
- Patients with at Least One Related TEAE ([4]; N = 38): (21%)
- Patients with at Least One Severe TEAE ([4]; N = 38): (3%)
- Patients with at Least One TEAE ([4]; N = 38): (74%)
- Patients with at Least One TESAE ([4]; N = 38): (5%)
- Patients with TEAE Leading to Dose Reduction ([4]; N = 38, number of patients): 2
- Patients with TEAE Leading to Drug Interruption ([4]; N = 38, number of patients): 1
- Patients with at Least One Related TEAE ([4]; N = 38, number of patients): 8
- Patients with at Least One Severe TEAE ([4]; N = 38, number of patients): 1
- Patients with at Least One TEAE ([4]; N = 38, number of patients): 28
- Patients with at Least One TESAE ([4]; N = 38, number of patients): 2
- patients eligible for SRT per guideline criteria [5]: none of these patients met these criteria; also recorded: eliminated SRT eligibility in all patients
